Two molecules from paper PMC11887051, “Discovery of ONO-2920632 (VU6011887): A Highly Selective and CNS Penetrant TREK-2 (TWIK-Related K+ Channel 2) Preferring Activator In Vivo Tool Compound” (ACS Chemical Neuroscience, 2025) can be followed below.

Read-outs that look alike come from different tables or passages of the source.

Data set [1] is described as follows: mouse PO PK study (C57BL/6). The data set is classed as in vivo. Conditions: 3 mg/kg PO; for concentration at 2 h: C57BL/6, mouse, po. On the procedure: (§1) Plasma and brain tissue samples originating from in vivo studies were analyzed by electrospray ionization using an AB Sciex Q-TRAP 5500 (Foster City, CA) that was coupled to a Shimadzu LC-20AD pump (Columbia, MD) and a Leap Technologies CTC PAL auto-sampler (Carrboro, NC). Analytes were separated by gradient elution using a C18 column (3 x 50 mm, 3 mm; Fortis Technologies Ltd, Cheshire, UK) that was thermostated at 40 °C. HPLC mobile phase A was 0.1% formic acid in water (pH unadjusted); mobile phase B was 0.1% formic acid in acetonitrile (pH […]
min, with an isocratic hold for 0.5 min, before transitioning to 10% B over 0.05 min. The column was re-equilibrated (1 min) before the next sample injection. The total run time was 2.55 min, and the HPLC flow rate was 0.5 ml/min. The source temperature was set at 500 °C, and mass spectral analyses were performed using a Turbo-Ion spray source in positive ionization mode (5.0-kV spray voltage) and using multiple-reaction monitoring of transitions specific for the analytes. All data were analyzed using AB Sciex Analyst 1.5.1 software.
Brain plasma concentration ratio (Kp) was calculated by dividing brain concentration by plasma concentration for each animal. Unbound brain to unbound plasma concentration ratio (Kp,uu) is calculated using the following formula: Kp,uu = (Brain ng/g x brain fu)/(plasma ng/ml x plasma fu).
(§2) For determination of the plasma concentration-time profile, compounds were formulated in methyl cellulose and administered as a 3 mg/kg PO dose to male C57BL/6 mouse or SD rat (n = 2). For the same determination, compounds were formulated in HP-β-CD and administered as a 0.1 mg/kg IV dose to male beagle dog (n = 2).
(§3) Plasma samples originating from in vivo studies were analyzed by electrospray ionization using a Q-TRAP 5500 (AB Sciex) that was coupled to a Prominence UFLC XR (Shimadzu Corporation).
(§4) Analytes were separated by gradient elution using a Shim-pack XR-ODS II (2 x 75 mm, 2.2μm, Shimadzu Corporation) that was thermostated at 40 °C. HPLC mobile phase A was 5 mM ammonium acetate containing 0.2% formic acid in water (pH unadjusted); mobile phase B was […]
hold for 1.5 min, before transitioning to 10% B over 0.1 min. The column was re-equilibrated (0.9 min) before the next sample injection. The total run time was 4.0 min, and the HPLC flow rate was 0.5 ml/min. The source temperature was set at 600 °C, and mass spectral analyses were performed using a Turbo-Ion spray source in positive ionization mode and using multiple-reaction

The next data set in a line: dog IV PK study. It is filed as in vivo. Conditions: male, beagle, plasma, 0.1 mg/kg IV, HP-β-CD solution. Here is the method:
as §1
min, with an isocratic hold for 0.5 min, before transitioning to 10% B over 0.05 min. The column was re-equilibrated (1 min) before the next sample injection. The total run time was 2.55 min, and the HPLC flow rate was 0.5 ml/min. The source temperature was set at 500 °C, and mass spectral analyses were performed using a Turbo-Ion spray source in positive ionization mode (5.0-kV spray voltage) and using multiple-reaction monitoring of transitions specific for the analytes. All data were analyzed using AB Sciex Analyst 1.5.1 software. […]
as §2, §3, §4
hold for 1.5 min, before transitioning to 10% B over 0.1 min. The column was re-equilibrated (0.9 min) before the next sample injection. The total run time was 4.0 min, and the HPLC flow rate was 0.5 ml/min. […]

The next data set concerns the target GABAB1A (Homo sapiens, UniProt Q9UBS5). The data set can be described thus: Eurofins Lead Profiling radioligand binding. As to conditions: title: 30 μM.
The test system of data set [2] is Glutamate, NMDA, Phencyclidine. The data set can be described thus: Eurofins Lead Profiling radioligand binding. Also on record: species or system Rat. Conditions: title: 30 μM.
Data set [3] has as its target Leukotriene, Cysteinyl CysLT1 (Homo sapiens, UniProt Q9Y271). Kind of data set: Eurofins Lead Profiling radioligand binding. As to conditions: title: 30 μM.
In a further data set the target is Muscarinic M2 (Homo sapiens, UniProt P08172). The data set can be described thus: Eurofins Lead Profiling radioligand binding. As to conditions: title: 30 μM.
The target of another data set is Muscarinic M3 (Homo sapiens, UniProt P20309). Kind of data set: Eurofins Lead Profiling radioligand binding. As to conditions: title: 30 μM.
Another data set concerns Phorbol Ester. Kind of data set: Eurofins Lead Profiling radioligand binding. More on the design: species or system Mouse. As to conditions: title: 30 μM.
For another data set, the target named is Serotonin (5-HT1A) (Homo sapiens, UniProt P08908). The data set can be described thus: Eurofins Lead Profiling radioligand binding. Conditions: title: 30 μM.
In another data set the target is Serotonin (5-HT2B) (Homo sapiens, UniProt P41595). The data set can be described thus: Eurofins Lead Profiling radioligand binding. As to conditions: title: 30 μM.
In data set [4] the target is Transporter, Serotonin (SERT) (Homo sapiens, UniProt P31645). The data set can be described thus: Eurofins Lead Profiling radioligand binding. Conditions: title: 30 μM.
The target in a further data set is T1, TREK-2 (Homo sapiens, UniProt P57789).
T1 sequence (P57789 1-538): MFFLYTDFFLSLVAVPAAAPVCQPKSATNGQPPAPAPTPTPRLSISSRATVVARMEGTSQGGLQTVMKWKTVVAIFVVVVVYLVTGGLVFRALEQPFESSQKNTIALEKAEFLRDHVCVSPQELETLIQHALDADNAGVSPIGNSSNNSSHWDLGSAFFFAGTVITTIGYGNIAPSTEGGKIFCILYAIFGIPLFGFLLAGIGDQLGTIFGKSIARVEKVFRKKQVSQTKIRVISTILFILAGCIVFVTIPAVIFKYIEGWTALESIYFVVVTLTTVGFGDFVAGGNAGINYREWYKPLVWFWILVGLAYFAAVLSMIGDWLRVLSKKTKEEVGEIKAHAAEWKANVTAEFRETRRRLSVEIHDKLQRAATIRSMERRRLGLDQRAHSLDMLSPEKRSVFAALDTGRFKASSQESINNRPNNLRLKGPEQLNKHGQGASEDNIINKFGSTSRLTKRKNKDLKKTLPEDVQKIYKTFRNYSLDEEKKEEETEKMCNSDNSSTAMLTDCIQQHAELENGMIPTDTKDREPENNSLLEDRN
Kind of data set: human TREK-2 MPC assay. Also on record: expressed in transfected cells; host or cells: HEK293. It is filed as cell-based.

Serotonin (5-HT1A), sequence (P08908 whole entry): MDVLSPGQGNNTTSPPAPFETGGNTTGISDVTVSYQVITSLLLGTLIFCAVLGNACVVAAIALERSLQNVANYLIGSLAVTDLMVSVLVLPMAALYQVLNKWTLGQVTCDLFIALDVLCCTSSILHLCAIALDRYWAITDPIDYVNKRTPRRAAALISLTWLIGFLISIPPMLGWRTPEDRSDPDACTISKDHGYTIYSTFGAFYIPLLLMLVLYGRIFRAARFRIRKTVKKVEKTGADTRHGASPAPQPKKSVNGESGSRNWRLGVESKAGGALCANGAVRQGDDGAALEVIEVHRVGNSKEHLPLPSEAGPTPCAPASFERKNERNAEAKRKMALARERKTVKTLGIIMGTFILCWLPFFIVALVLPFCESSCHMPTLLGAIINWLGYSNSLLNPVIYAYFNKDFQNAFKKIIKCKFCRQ
Muscarinic M3, sequence (P20309 whole entry): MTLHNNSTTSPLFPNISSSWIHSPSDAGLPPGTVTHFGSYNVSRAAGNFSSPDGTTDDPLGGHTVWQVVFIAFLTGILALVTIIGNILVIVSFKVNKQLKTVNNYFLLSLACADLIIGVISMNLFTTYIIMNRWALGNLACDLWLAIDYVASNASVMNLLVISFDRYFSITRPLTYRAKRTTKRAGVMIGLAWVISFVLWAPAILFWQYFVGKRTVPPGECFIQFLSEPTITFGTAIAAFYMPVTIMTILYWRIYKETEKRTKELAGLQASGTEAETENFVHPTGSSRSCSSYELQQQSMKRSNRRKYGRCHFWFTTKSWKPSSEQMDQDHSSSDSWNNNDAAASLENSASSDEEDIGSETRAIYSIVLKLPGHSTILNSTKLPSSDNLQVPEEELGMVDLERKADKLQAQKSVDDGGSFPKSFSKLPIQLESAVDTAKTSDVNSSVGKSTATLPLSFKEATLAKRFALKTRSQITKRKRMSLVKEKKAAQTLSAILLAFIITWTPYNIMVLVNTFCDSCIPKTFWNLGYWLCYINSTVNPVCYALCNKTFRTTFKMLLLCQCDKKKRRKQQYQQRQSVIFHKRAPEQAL
Muscarinic M2, sequence (P08172 whole entry): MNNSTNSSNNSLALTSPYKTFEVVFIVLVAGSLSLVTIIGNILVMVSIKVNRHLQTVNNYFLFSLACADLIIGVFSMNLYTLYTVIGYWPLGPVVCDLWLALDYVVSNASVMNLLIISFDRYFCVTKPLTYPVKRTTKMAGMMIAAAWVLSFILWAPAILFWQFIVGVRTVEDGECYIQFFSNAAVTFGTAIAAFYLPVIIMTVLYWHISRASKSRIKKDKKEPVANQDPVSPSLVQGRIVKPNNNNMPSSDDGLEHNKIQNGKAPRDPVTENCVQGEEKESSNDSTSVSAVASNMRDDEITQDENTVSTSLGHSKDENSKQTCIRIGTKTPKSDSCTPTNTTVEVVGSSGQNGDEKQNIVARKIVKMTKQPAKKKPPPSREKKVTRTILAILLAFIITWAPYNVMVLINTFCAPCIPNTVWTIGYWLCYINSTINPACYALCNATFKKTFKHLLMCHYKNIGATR
GABAB1A, sequence (Q9UBS5 15-961 limits assumed): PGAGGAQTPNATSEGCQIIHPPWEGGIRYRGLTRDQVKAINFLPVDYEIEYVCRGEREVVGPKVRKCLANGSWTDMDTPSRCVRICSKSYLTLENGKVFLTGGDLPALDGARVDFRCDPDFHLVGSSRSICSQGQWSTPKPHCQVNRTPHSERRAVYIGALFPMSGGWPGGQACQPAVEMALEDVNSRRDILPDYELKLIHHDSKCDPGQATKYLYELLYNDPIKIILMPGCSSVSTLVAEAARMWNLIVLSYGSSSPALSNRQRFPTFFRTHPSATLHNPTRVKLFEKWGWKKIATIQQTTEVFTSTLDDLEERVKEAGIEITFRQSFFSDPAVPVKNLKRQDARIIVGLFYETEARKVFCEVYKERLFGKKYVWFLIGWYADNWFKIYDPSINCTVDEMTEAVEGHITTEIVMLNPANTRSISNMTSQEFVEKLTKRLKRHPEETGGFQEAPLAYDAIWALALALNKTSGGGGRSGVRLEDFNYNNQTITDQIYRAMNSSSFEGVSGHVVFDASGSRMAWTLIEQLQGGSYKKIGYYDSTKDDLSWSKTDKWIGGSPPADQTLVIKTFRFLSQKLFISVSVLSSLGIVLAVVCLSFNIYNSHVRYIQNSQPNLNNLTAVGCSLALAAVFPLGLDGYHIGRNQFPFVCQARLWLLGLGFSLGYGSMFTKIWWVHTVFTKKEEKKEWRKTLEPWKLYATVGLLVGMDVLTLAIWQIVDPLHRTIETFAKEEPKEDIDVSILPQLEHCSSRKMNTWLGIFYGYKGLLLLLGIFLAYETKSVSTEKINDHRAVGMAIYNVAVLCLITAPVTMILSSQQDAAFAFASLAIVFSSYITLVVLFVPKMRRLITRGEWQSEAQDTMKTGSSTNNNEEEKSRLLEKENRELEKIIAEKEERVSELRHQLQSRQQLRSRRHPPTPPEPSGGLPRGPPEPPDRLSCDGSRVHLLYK
Leukotriene, Cysteinyl CysLT1, sequence (Q9Y271 whole entry): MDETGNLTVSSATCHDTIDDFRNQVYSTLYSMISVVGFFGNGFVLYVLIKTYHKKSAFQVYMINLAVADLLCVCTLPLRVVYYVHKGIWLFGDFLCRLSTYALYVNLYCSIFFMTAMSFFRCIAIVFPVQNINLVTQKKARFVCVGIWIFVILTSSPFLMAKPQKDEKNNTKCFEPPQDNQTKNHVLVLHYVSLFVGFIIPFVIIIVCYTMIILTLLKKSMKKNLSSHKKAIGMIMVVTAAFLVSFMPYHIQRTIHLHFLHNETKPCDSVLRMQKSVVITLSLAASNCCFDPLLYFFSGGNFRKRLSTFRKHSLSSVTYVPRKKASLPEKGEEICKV
Transporter, Serotonin (SERT), sequence (P31645 whole entry): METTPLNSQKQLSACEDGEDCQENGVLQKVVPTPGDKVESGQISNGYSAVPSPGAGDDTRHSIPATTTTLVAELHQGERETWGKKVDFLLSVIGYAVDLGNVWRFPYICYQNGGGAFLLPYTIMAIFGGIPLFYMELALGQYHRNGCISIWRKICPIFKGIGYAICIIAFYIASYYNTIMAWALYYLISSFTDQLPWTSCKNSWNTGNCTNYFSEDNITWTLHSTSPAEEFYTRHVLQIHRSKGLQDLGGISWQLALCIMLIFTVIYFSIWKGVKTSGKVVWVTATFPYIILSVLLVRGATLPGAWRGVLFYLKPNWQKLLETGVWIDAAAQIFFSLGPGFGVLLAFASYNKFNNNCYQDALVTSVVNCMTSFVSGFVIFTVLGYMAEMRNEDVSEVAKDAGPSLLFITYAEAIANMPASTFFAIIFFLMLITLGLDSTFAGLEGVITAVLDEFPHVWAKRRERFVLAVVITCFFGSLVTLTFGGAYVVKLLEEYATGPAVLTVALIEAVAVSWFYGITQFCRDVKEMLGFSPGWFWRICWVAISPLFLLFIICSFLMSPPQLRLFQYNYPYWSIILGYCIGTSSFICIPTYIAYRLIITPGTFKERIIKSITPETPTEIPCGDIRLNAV
Serotonin (5-HT2B), sequence (P41595 whole entry): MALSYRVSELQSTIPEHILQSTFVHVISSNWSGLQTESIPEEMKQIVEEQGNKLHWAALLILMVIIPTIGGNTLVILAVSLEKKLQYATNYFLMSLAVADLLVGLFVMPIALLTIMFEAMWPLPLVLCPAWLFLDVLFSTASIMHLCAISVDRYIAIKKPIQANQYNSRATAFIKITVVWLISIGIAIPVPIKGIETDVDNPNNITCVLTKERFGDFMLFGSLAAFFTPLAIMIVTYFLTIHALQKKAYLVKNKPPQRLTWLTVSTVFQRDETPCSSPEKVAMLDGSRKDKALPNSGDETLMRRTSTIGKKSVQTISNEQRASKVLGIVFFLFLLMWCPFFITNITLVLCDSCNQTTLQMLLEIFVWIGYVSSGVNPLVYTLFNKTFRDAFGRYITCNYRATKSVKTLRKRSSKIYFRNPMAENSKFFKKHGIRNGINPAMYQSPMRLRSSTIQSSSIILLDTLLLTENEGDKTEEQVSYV

What is called Cmax is the highest concentration seen after dosing. As a reminder, the Tmax is the time at which the peak concentration occurs. Broadly, the half-life is how long it takes for the measured level to halve. High values mean slow decline, low ones rapid decline. A word on the inhibition: it is the change of the read-out against control, counted positive when it falls. For orientation: % Inhibition means the drop in the measured response relative to a control, in per cent. In data set [1] (2 h, 3 mg/kg), `O=C(NCc1ccc(OC(F)(F)F)cc1F)c1ccc2ncnn2c1` [Compound 19b] returned a total brain concentration of roughly 3 µM. Also, the concentration at 2 h came out at 220 nM in data set [1] (male, CSF, 3 mg/kg, 2 h, read-out: CSF level); 920 nM in [1] (male, brain, 3 mg/kg, 2 h, read-out: free brain level); 3200 nM in data set [1] (male, brain, 3 mg/kg, 2 h, read-out: total brain concentration). Moreover, in [1] (male, plasma, C57BL/6 mice), the Cmax was found to be 10500 nM. Besides, in data set [1] (male, plasma, C57BL/6 mice), the Tmax is 3.8 h. The half-life in data set [1] (male, plasma, C57BL/6 mice) was 19 h; in the data set “dog IV PK study” it was 22 h. Besides, the clearance in “dog IV PK study” (read-out: CLp) is 1.3 mL/min/kg. The Vd in the data set “dog IV PK study” (read-out: Vss) is 2.2 L/kg. The inhibition at GABAB1A was -1%; in data set [3], 5%; on Muscarinic M2 it was -3%; at Muscarinic M3, 8%; on Serotonin (5-HT1A), 2%; at Serotonin (5-HT2B) it was 14%. For the same molecule, the inhibition in data set [4] was determined as 2%. For the same molecule, the “% Inhibition at 10 µM” value (in data set [2]; in the data set with Phorbol Ester) was 0% each time.
A word on the EC50: it is the concentration at which the effect is half-maximal. A low value points to a more potent agent. The Emax is the greatest response seen or fitted, relative to the assay's reference. With `O=C(NCc1ccc(OC(F)(F)F)cc1Cl)c1ccc2nncn2c1` [Compound 20], at TREK-2, the EC50 worked out at 190 nM and the Emax is 142%.
